Assay results taken from PubChem BioAssay (NCI).
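Method: 48-hour compound exposure of cells in 96-well plates, five concentrations, linear interpolation of endpoints. TGI: total growth inhibition.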

Legend:
Experiment in all cases: DTP human tumour cell line panel, 48 h
SK-OV-3 ovarian = tested on: SK-OV-3 ovarian
MDA-MB-231 breast = tested on: MDA-MB-231 breast
HOP-92 NSCLC = tested on: HOP-92 NSCLC
OVCAR-4 ovarian = tested on: OVCAR-4 ovarian
DU-145 prostate = tested on: DU-145 prostate
PC-3 prostate = tested on: PC-3 prostate
OVCAR-3 ovarian = tested on: OVCAR-3 ovarian
RPMI-8226 leukemia = tested on: RPMI-8226 leukemia
NCI/ADR-RES ovarian = tested on: NCI/ADR-RES ovarian
SK-MEL-2 melanoma = tested on: SK-MEL-2 melanoma
SF-268 CNS = tested on: SF-268 CNS
NCI-H460 lung = tested on: NCI-H460 lung
TK-10 renal = tested on: TK-10 renal
SK-MEL-28 melanoma = tested on: SK-MEL-28 melanoma
CCRF-CEM leukemia = tested on: CCRF-CEM leukemia
K-562 leukemia = tested on: K-562 leukemia
MDA-MB-435 = tested on: MDA-MB-435
U251 CNS = tested on: U251 CNS
SNB-75 CNS = tested on: SNB-75 CNS
SF-295 CNS = tested on: SF-295 CNS

| SMILES | TGI (SK-OV-3 ovarian) | TGI (MDA-MB-231 breast) | TGI (HOP-92 NSCLC) | TGI (OVCAR-4 ovarian) | TGI (DU-145 prostate) | TGI (PC-3 prostate) | TGI (OVCAR-3 ovarian) | TGI (RPMI-8226 leukemia) | TGI (NCI/ADR-RES ovarian) | TGI (SK-MEL-2 melanoma) | TGI (SF-268 CNS) | TGI (NCI-H460 lung) | TGI (TK-10 renal) | TGI (SK-MEL-28 melanoma) | TGI (CCRF-CEM leukemia) | TGI (K-562 leukemia) | TGI (MDA-MB-435) | TGI (U251 CNS) | TGI (SNB-75 CNS) | TGI (SF-295 CNS) |
| --- | --- | --- | --- | --- | --- | --- | --- | --- | --- | --- | --- | --- | --- | --- | --- | --- | --- | --- | --- | --- |
| CCOC(=O)N/N=C(\CC)NO | > 100 µM | > 100 µM | > 100 µM | > 100 µM | > 100 µM | > 100 µM | > 100 µM | > 100 µM | > 100 µM | > 100 µM | > 100 µM | > 100 µM | > 100 µM | > 100 µM | > 100 µM | > 100 µM | > 100 µM | > 100 µM | – | – |
| c1ccc(C2=NN=C3C(c4ccccc4)=Nc4ccccc4N3C2)cc1 | > 100 µM | > 100 µM | > 88.9 µM | 42 µM | > 100 µM | > 100 µM | > 24.5 µM | 40.8 µM | > 100 µM | > 82.2 µM | > 60.2 µM | 23.5 µM | 43.4 µM | > 100 µM | 20.2 µM | > 100 µM | 98.7 µM | > 100 µM | – | – |
| CC(=O)N1C(=O)c2cc3ccccc3cc21 | > 100 µM | > 100 µM | > 100 µM | – | > 100 µM | > 100 µM | – | > 100 µM | > 100 µM | > 100 µM | > 100 µM | > 100 µM | > 100 µM | > 100 µM | > 100 µM | > 100 µM | > 100 µM | > 100 µM | > 100 µM | – |
| Cc1ccc2c(n1)NC(=O)C(Cc1ccccc1)(N=[N+]=[N-])C2=O (stereo not given) | > 100 µM | > 100 µM | > 100 µM | > 100 µM | > 100 µM | > 100 µM | > 100 µM | – | > 100 µM | – | > 100 µM | > 100 µM | > 100 µM | > 100 µM | > 100 µM | > 100 µM | > 100 µM | > 100 µM | – | > 100 µM |
| O=[N+]([O-])c1cccc(-c2cn3c(n2)Cc2ccccc2C3)c1 | > 100 µM | 67.6 µM | > 100 µM | > 100 µM | > 100 µM | > 100 µM | – | – | > 100 µM | > 100 µM | > 100 µM | > 100 µM | > 100 µM | > 100 µM | > 100 µM | > 100 µM | > 100 µM | > 100 µM | > 100 µM | > 100 µM |
| COC(=O)[C@]12C3=C(O)C(=O)C[C@H]1OC[C@H]2C=CC3 | > 100 µM | > 100 µM | > 100 µM | > 100 µM | > 100 µM | > 100 µM | > 100 µM | > 100 µM | > 100 µM | > 100 µM | > 100 µM | > 100 µM | > 100 µM | > 100 µM | – | > 100 µM | > 100 µM | > 100 µM | > 100 µM | > 100 µM |
| C=C1C2CC3CCC2C(OC(=O)c2ccccc2C(=O)O)C13 (stereo not given) | > 100 µM | > 100 µM | > 100 µM | > 100 µM | > 100 µM | > 100 µM | > 100 µM | – | > 100 µM | > 100 µM | > 100 µM | > 100 µM | > 100 µM | > 100 µM | > 100 µM | > 100 µM | > 100 µM | > 100 µM | > 100 µM | > 100 µM |
| CC(NP(=O)(c1ccccc1)c1ccccc1)c1ccccc1 (stereo not given) | > 100 µM | > 100 µM | > 100 µM | > 100 µM | > 100 µM | > 100 µM | > 100 µM | > 100 µM | > 100 µM | – | > 100 µM | > 100 µM | > 100 µM | > 100 µM | > 100 µM | > 100 µM | > 100 µM | > 100 µM | > 100 µM | > 100 µM |
| CCOC(=O)CC(=O)Nc1cccc2sc3ncccc3c(=O)c12 | > 100 µM | > 100 µM | – | > 100 µM | > 100 µM | > 100 µM | > 100 µM | > 100 µM | > 100 µM | > 100 µM | > 100 µM | > 100 µM | > 100 µM | > 100 µM | > 100 µM | > 100 µM | > 100 µM | > 100 µM | > 100 µM | > 100 µM |
| CCOC(=O)c1csc(C(CSCc2ccc(OC)cc2)N2C(=O)c3ccccc3C2=O)n1 (stereo not given) | > 100 µM | > 100 µM | > 100 µM | > 100 µM | > 100 µM | > 100 µM | > 100 µM | > 100 µM | > 100 µM | – | > 100 µM | > 100 µM | > 100 µM | > 100 µM | > 100 µM | > 100 µM | > 100 µM | > 100 µM | – | > 100 µM |
| C[C@H](c1ccccc1)n1c(N)c(-c2nc3ccccc3s2)c2ccc([N+](=O)[O-])cc2c1=O | > 100 µM | 27.7 µM | 5.81 µM | > 100 µM | > 38.8 µM | > 65.7 µM | > 100 µM | 1.87 µM | 22 µM | > 28.7 µM | > 100 µM | > 61.5 µM | > 100 µM | > 100 µM | – | 4.25 µM | > 79.7 µM | 53.3 µM | > 91.7 µM | 50.8 µM |
| CC1CC(=NC2CCCCC2)Nc2ccccc2N1Cc1ccccc1 (stereo not given) | 23.4 µM | 17 µM | – | 20.2 µM | 17 µM | 18.3 µM | 20.4 µM | > 32.7 µM | 19.9 µM | 24.9 µM | 17.3 µM | 14.5 µM | 25.2 µM | 17.7 µM | > 36.4 µM | > 36.1 µM | 13.4 µM | 19.9 µM | 3.18 µM | 19.4 µM |
